From patent publication US12091409B2, “Ether linked triazoles as NRF2 activators” (ASTEX THERAPEUTICS LIMITED, priority 2016, dated 2024) come the findings set out here.

pEC50: −log10 of the molar value. Structures can show the parent of a compound that is named as a salt. Some results are limits rather than exact numbers.

For one experiment, the system named is NQO1 specific enzyme activity in BEAS-2B cells (marker for NRF2 activation). In words: BEAS-2B NQO1 MTT Assay. It is filed as cell-based. Particulars: Homo sapiens, BEAS-2B, 48 h, NQO1 specific activity induction, 48 hours with compound. In a few lines: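 Following 48 h compound treatment at 37° C., 5% CO2, cells were lysed and MTT cocktail added. Product formation was followed kinetically at 570 nm for 30 min. Rate (Delta OD/min) against log concentration was fitted with 3 parameters to give pEC50 for induction of NQO1 specific activity.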
Broadly, the pEC50 is the EC50 on a negative log10 scale, so that one unit is a factor of ten. Regarding `CC[C@@H]1Cc2ccccc2S(=O)(=O)N(Cc2cc([C@@H](OCc3cn(CC)nn3)C(C)(C)C(=O)O)ccc2C)C1` [Example 77, (3R)-((1-ethyl-1H-1,2,3-triazol-4-yl)methoxy)-2,2-dimethyl-3-(4-methyl-3-(((R)-4-ethyl-1,1-dioxido-4,5-dihydrobenzo[f][1,2]thiazepin-2(3H)-yl)methyl)phenyl)propanoic acid], the negative-log EC50 (pEC50) is 8.00 to 9.00. Consider `Cc1ccc([C@H](OCc2cn(C)nn2)C(C)(C)C(=O)O)cc1CN1Cc2ncccc2O[C@H](C(C)C)C1` [Example 112, (S)-3-(3-(((R)-2-isopropyl-2,3-dihydropyrido[2,3-f][1,4]oxazepin-4(5H)-yl)methyl)-4-methylphenyl)-2,2-dimethyl-3-((1-methyl-1H-1,2,3-triazol-4-yl)-methoxy)propanoic acid, trifluoroacetate], for which the negative-log EC50 (pEC50) was 7.00 to 8.00. As to `Cc1ccc(C(OCc2cn(C3COC3)nn2)C(C)(C)C(=O)O)cc1CN1C[C@@H](C)Oc2ccccc2S1(=O)=O` (stereo partly drawn) [Example 104, 2,2-Dimethyl-3-(4-methyl-3-(((R)-4-methyl-1,1-dioxido-3,4-dihydro-2H-benzo[b][1,4,5]oxathiazepin-2-yl)methyl)phenyl)-3-((1-(oxetan-3-yl)-1H-1,2,3-triazol-4-yl)methoxy)propanoic acid], the pEC50 is 7.00 to 8.00. The same measure, in the same setting: the result for `Cc1ccc(C(OCc2cn(CC3CCN(C(=O)C4CCOCC4)CC3)nn2)C(C)(C)C(=O)O)cc1CN1C[C@@H](C)Oc2ccccc2S1(=O)=O` (stereo partly drawn) [Example 35, 2,2-Dimethyl-3-(4-methyl-3-(((R)-4-methyl-1,1-dioxido-3,4-dihydro-2H-benzo[b][1,4,5]oxathiazepin-2-yl)methyl)phenyl)-3-((1-((1-(tetrahydro-2H-pyran-4-carbonyl)piperidin-4-yl)methyl)-1H-1,2,3-triazol-4-yl)methoxy)propanoic acid] reads 6.00 to 7.00; that for `Cc1ccc(C(OCc2cn(Cc3cccc(Br)c3)nn2)C(C)(C)C(=O)O)cc1CN1C[C@@H](C)Oc2ccccc2S1(=O)=O` (stereo partly drawn) [Example 1, 3-((1-(3-Bromobenzyl)-1H-1,2,3-triazol-4-yl)methoxy)-2,2-dimethyl-3-(4-methyl-3-(((R)-4-methyl-1,1-dioxido-3,4-dihydro-2H-benzo[b][1,4,5]oxathiazepin-2-yl)methyl)phenyl)propanoic acid], above 9.00; that for `CCn1cc(CO[C@H](c2ccc(C)c(CN(Cc3cccc(C(=O)O)c3)S(=O)(=O)c3ccccc3)c2)C(C)(C)C(=O)O)nn1` [Example 91, (R)-3-((N-(5-(2-carboxy-1-((1-ethyl-1H-1,2,3-triazol-4-yl)methoxy)-2-methylpropyl)-2-methylbenzyl)phenylsulfonamido)methyl)benzoic acid], 5.00 to 6.00. Take `Cc1ccc(C(OCc2cn(CC3CCN(C(=O)OC(C)(C)C)CC3)nn2)C(C)(C)C(=O)O)cc1CN1C[C@@H](C)Oc2ccccc2S1(=O)=O` (stereo partly drawn) [Example 20, 3-((1-((1-(Tert-butoxycarbonyl)piperidin-4-yl)methyl)-1H-1,2,3-triazol-4-yl)methoxy)-2,2-dimethyl-3-(4-methyl-3-(((R)-4-methyl-1,1-dioxido-3,4-dihydro-2H-benzo[b][1,4,5]oxathiazepin-2-yl)methyl)phenyl)propanoic acid]: the pEC50 is 8.00 to 9.00.

Consider `Cc1ccc(C(OCc2cn(CC3CCN(S(C)(=O)=O)CC3)nn2)C(C)(C)C(=O)O)cc1CN1C[C@@H](C)Oc2ccccc2S1(=O)=O` (stereo partly drawn) [Example 36, 2,2-Dimethyl-3-(4-methyl-3-(((R)-4-methyl-1,1-dioxido-3,4-dihydro-2H-benzo[b][1,4,5]oxathiazepin-2-yl)methyl)phenyl)-3-((1-((1-(methylsulfonyl)piperidin-4-yl)methyl)-1H-1,2,3-triazol-4-yl)methoxy)propanoic acid], for which the pEC50 was 7.00 to 8.00.

Take `CCn1cc(COC(c2ccc(C)c(CN(C3CCCCC3)S(=O)(=O)c3cccc(OC)c3)c2)C(C)(C)C(=O)O)nn1` (stereo not shown) [Example 96, 3-(3-(((N-cyclohexyl-3-methoxyphenyl)sulfamido)methyl)-4-methylphenyl)-3-((1-ethyl-1H-1,2,3-triazol-4-yl)methoxy)-2,2-dimethylpropanoic acid]: the negative logarithm of the EC50 (pEC50) was 6.00 to 7.00.

Turning to `C#CCOC(c1ccc(C)c(CN2C[C@@H](C)Oc3ccccc3S2(=O)=O)c1)C(C)(C)C(=O)O` (stereo partly drawn) [Example 2, 2,2-Dimethyl-3-(4-methyl-3-(((R)-4-methyl-1,1-dioxido-3,4-dihydro-2H-benzo[b][1,4,5]oxathiazepin-2-yl)methyl)phenyl)-3-(prop-2-yn-1-yloxy)propanoic acid], the pEC50 was 6.00 to 7.00. Still for that read-out and setting: in the case of `COCCn1cc(CO[C@H](c2ccc(C)c(CN(Cc3ccccn3)S(=O)(=O)c3cccc(C(=O)O)c3)c2)C(C)(C)C(=O)O)nn1` [Example 93, (R)-3-(N-(5-(2-carboxy-1-((1-(2-methoxyethyl)-1H-1,2,3-triazol-4-yl)methoxy)-2-methylpropyl)-2-methylbenzyl)-N-(pyridin-2-ylmethyl)sulfamoyl)benzoic acid] it was 6.00 to 7.00; in that of `CCn1cc(COC(c2ccc(C)c(CN3C[C@@H](C)Oc4ccccc4S3(=O)=O)c2)C(C)(C)C(=O)O)nn1` (stereo partly drawn) [Example 11, 3-((1-Ethyl-1H-1,2,3-triazol-4-yl)methoxy)-2,2-dimethyl-3-(4-methyl-3-(((R)-4-methyl-1,1-dioxido-3,4-dihydro-2H-benzo[b][1,4,5]oxathiazepin-2-yl)methyl)phenyl)propanoic acid], 8.00 to 9.00; in that of `Cc1ccc(C(OCc2cn(Cc3cccc(Cn4cc(CCC(=O)O)nn4)c3)nn2)C(C)(C)C(=O)O)cc1CN1C[C@@H](C)Oc2ccccc2S1(=O)=O` (stereo partly drawn) [Example 45, 3-((1-(3-((4-(2-Carboxyethyl)-1H-1,2,3-triazol-1-yl)methyl)benzyl)-1H-1,2,3-triazol-4-yl)methoxy)-2,2-dimethyl-3-(4-methyl-3-(((R)-4-methyl-1,1-dioxido-3,4-dihydro-2H-benzo[b][1,4,5]oxathiazepin-2-yl)methyl)phenyl)propanoic acid], 6.00 to 7.00.

Consider `CCn1cc(CO[C@H](c2ccc(C)c(CN3C[C@@H](C)Cc4ncccc4S3(=O)=O)c2)C(C)(C)C(=O)O)nn1` [Example 62, (3R)-((1-ethyl-1H-1,2,3-triazol-4-yl)methoxy)-2,2-dimethyl-3-(4-methyl-3-(((S)-4-methyl-1,1-dioxido-4,5-dihydropyrido[2,3-f][1,2]thiazepin-2(3H)-yl)methyl)phenyl)propanoic acid], for which the pEC50 was above 9.00. On the same count and under the same terms, in the case of `CC[C@@H]1CN(Cc2cc(C(OCc3cn(CC)nn3)C(C)(C)C(=O)O)ccc2C)S(=O)(=O)c2ccccc2O1` (stereo partly drawn) [Example 10, 3-(3-(((R)-4-ethyl-1,1-dioxido-3,4-dihydro-2H-benzo[b][1,4,5]oxathiazepin-2-yl)methyl)-4-methylphenyl)-3-((1-ethyl-1H-1,2,3-triazol-4-yl)methoxy)-2,2-dimethylpropanoic acid] it was above 9.00; in that of `CC[C@@H]1CN(Cc2cc([C@@H](OCc3cn(C)nn3)C(C)(C)C(=O)O)ccc2C)Cc2ncccc2O1` [Example 108, (R)-3-(3-(((R)-2-Ethyl-2,3-dihydropyrido[2,3-f][1,4]oxazepin-4(5H)-yl)methyl)-4-methylphenyl)-2,2-dimethyl-3-((1-methyl-1H-1,2,3-triazol-4-yl)methoxy)propanoic acid Hydrochloride], 7.00 to 8.00. Same read-out and setting: in the case of `CCCn1cc(COC(c2ccc(C)c(CN3CC(C)(C)Oc4ccccc4S3(=O)=O)c2)C(C)(C)C(=O)O)nn1` (stereo not shown) [Example 9, 3-(3-((4,4-Dimethyl-1,1-dioxido-3,4-dihydo-2H-benzo[b][1,4]oxathiazepin-2-yl)methyl)-4-methylphenyl)-2,2-dimethyl-3-((1-propyl-1H-1,2,3-triazol-4-yl)methoxy)-propanoic acid] it was 8.00 to 9.00; in that of `Cc1ccc([C@H](OCc2cn(CCOCCn3cc(CO[C@@H](c4ccc(C)c(CN5C[C@@H](C)Oc6ccccc6S5(=O)=O)c4)C(C)(C)C(=O)O)nn3)nn2)C(C)(C)C(=O)O)cc1CN1C[C@@H](C)Oc2ccccc2S1(=O)=O` (relative stereo) [Example 50, (R,rel-3S, rel-3′S)-3,3′-(((1,1′-(oxybis(ethane-2,1-diyl))bis(1H-1,2,3-triazole-4,1-diyl))bis(methylene))bis(oxy))bis(2,2-dimethyl-3-(4-methyl-3-(((R)-4-methyl-1,1-dioxido-3,4-dihydro-2H-benzo[b][1,4,5]oxathiazepin-2-yl)methyl)phenyl)propanoic acid)], 7.00 to 8.00; in that of `CCn1cc(CO[C@@H](c2ccc(C)c(CN3CC(C)Cc4ccncc4S3(=O)=O)c2)C(C)(C)C(=O)O)nn1` (stereo in doubt) [Example 73, (3S)-((1-ethyl-1H-1,2,3-triazol-4-yl)methoxy)-2,2-dimethyl-3-(4-methyl-3-(((R)-4-methyl-1,1-dioxido-4,5-dihydropyrido[4,3-f][1,2]thiazepin-2(3H)-yl)methyl)phenyl)propanoic acid], 7.00 to 8.00. On the same count and under the same terms, in the case of `CCCn1cc(CO[C@H](c2ccc(C)c(CN3C[C@@H](CC)Oc4ccccc4S3(=O)=O)c2)C(C)(C)C(=O)O)nn1` [Example 90, (R)-3-(3-(((R)-4-ethyl-1,1-dioxido-3,4-dihydro-2H-benzo[b][1,4,5]oxathiazepin-2-yl)methyl)-4-methylphenyl)-2,2-dimethyl-3-((1-propyl-1H-1,2,3-triazol-4-yl)methoxy)propanoic acid] it was above 9.00.

The experiment is the same for the next values; noted with them: NQO1 specific activity induction, 48 hours with compound.
For the compound `Cc1ccc(C(OCc2cn(C3COC3)nn2)C(C)(C)C(=O)O)cc1CN1C[C@@H](C)Cc2ccncc2S1(=O)=O` (single isomer, unassigned) [Example 102], the pEC50 is 7.00 to 8.00.

`Cc1ccc(C(OCc2cn(CC(C)C)nn2)C(C)(C)C(=O)O)cc1CN1C[C@@H](C)Oc2ccccc2S1(=O)=O` (single isomer, unassigned) [Example 16]: the negative-log EC50 (pEC50) is 7.00 to 8.00.
